# Key:
# Test in all cases: combination Emax (second highest fraction inhibited in the dose matrix, 72 h); higher = more inhibition; extreme values may be limits of the assay
# Hey (Ovarian Carcinoma) = system: Hey (Ovarian Carcinoma)
# Procedure, shortened: (§1)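 Bliss excess equals the observed combination effect minus the expected value EA + EB − EA·EB, where EA and EB are the effects of each agent alone. Combination Emax is the second-highest inhibition within the matrix. Inhibition was scaled from CellTiter-Glo 2.0 luminescence, with 0 set by vehicle wells and 1 by blank wells, after 72 hours of two-drug dosing of cells plated in 1536-well plates.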
# [1] = system: DU-145 (Prostate Carcinoma)
# Procedure, shortened: as §1
# [2] = system: MV-4-11 (Acute Myeloid Leukemia)
# Procedure, shortened: as §1
# [3] = system: COLO-668 (Small Cell Lung Carcinoma)
# Procedure, shortened: as §1
# [4] = system: OE33 (Esophageal Adenocarcinoma)
# Procedure, shortened: as §1
# [5] = system: NCI-H2122 (Lung Adenocarcinoma)
# Procedure, shortened: as §1
# [6] = system: ME-180 (Cervical Carcinoma)
# Procedure, shortened: as §1
# EW-1 (Ewing's Sarcoma) = system: EW-1 (Ewing's Sarcoma)
# Procedure, shortened: as §1
# [7] = system: HAL-01 (B-Lymphoblastic Leukemia)
# Procedure, shortened: as §1
# [8] = system: G-401 (Other Solid Carcinomas)
# Procedure, shortened: as §1
# [9] = system: EFO-21 (Ovarian Carcinoma)
# Procedure, shortened: as §1
# [10] = system: KGN (Other Solid Carcinomas)
# Procedure, shortened: as §1
# [11] = system: NCI-H650 (Lung Adenocarcinoma)
# Procedure, shortened: as §1
# [12] = system: OACM5-1 (Esophageal Adenocarcinoma)
# Procedure, shortened: as §1
# [13] = system: SK-LU-1 (Lung Adenocarcinoma)
# Procedure, shortened: as §1
# [14] = system: MOG-G-UVW (Low Grade Glioma)
# Procedure, shortened: as §1
# [15] = system: Mo-T (Other Blood Carcinomas)
# Procedure, shortened: as §1
# [16] = system: NCI-H522 (Lung Adenocarcinoma)
# Procedure, shortened: as §1
# [17] = system: CADO-ES1 (Ewing's Sarcoma)
# Procedure, shortened: as §1
# [18] = system: HCC1500 (Breast Carcinoma)
# Procedure, shortened: as §1
SMILES,combination Emax (Hey (Ovarian Carcinoma)),combination Emax [1],combination Emax [2],combination Emax [3],combination Emax [4],combination Emax [5],combination Emax [6],combination Emax (EW-1 (Ewing's Sarcoma)),combination Emax [7],combination Emax [8],combination Emax [9],combination Emax [10],combination Emax [11],combination Emax [12],combination Emax [13],combination Emax [14],combination Emax [15],combination Emax [16],combination Emax [17],combination Emax [18]
"CC(=O)c1c(C)c2cnc(Nc3ccc(N4CCNCC4)cn3)nc2n(C2CCCC2)c1=O [Palbociclib] + Cn1cnc2c(F)c(Nc3ccc(Br)cc3Cl)c(C(=O)NOCCO)cc21 [Selumetinib] (first compound max 10 µM, 7x7, partner max 10 µM)",0.623,0.12,0.955,0.363,0.259,0.954,0.297,0.551,0.928,0.859,0.245,0.529,0.36,0.477,0.362,0.523,0.329,0.127,0.265,0.193
"C[C@@H]1COCCN1c1cc(C2([S@](C)(=N)=O)CC2)nc(-c2ccnc3[nH]ccc23)n1 [AZD6738] + O=C(c1cc(Cc2n[nH]c(=O)c3ccccc23)ccc1F)N1CCN(C(=O)C2CC2)CC1 [Olaparib] (first compound max 10 µM, 7x7, partner max 10 µM)",0.699,0.548,0.985,0.659,0.721,0.902,0.425,0.898,0.982,0.491,0.412,0.828,0.193,0.518,0.473,0.847,0.552,0.23,0.915,0.341
"CS(=O)(=O)CCNCc1ccc(-c2ccc3ncnc(Nc4ccc(OCc5cccc(F)c5)c(Cl)c4)c3c2)o1 [Lapatinib] + C[C@@H](Oc1cc(-c2cnn(C3CCNCC3)c2)cnc1N)c1c(Cl)ccc(F)c1Cl [Crizotinib] (first compound max 10 µM, 7x7, partner max 10 µM)",0.865,0.286,0.978,0.665,0.909,0.962,0.81,0.966,0.955,0.942,0.371,0.944,0.615,0.889,0.451,0.842,0.88,0.457,0.774,0.854
"Cc1c2c(nn1C)CSCc1cc(n(C)n1)CSc1cc(c3ccccc3c1)OCCCc1c(C(=O)O)n(C)c3c-2c(Cl)ccc13 [AZD5991] + Cc1cc2ncnn2cc1Nc1ncc2c(n1)n(C1CCOCC1)c(=O)n2C [AZD7648] (first compound max 1 µM, 7x7, partner max 10 µM)",0.316,0.23,1,0.187,0.237,0.597,0.338,0.421,0.704,0.616,0.32,0.563,0.203,0.923,0.399,0.271,0.262,0.362,0.893,0.465
"Cc1c2c(nn1C)CSCc1cc(n(C)n1)CSc1cc(c3ccccc3c1)OCCCc1c(C(=O)O)n(C)c3c-2c(Cl)ccc13 [AZD5991] + C[C@@H]1COCCN1C2=NC(=NC(=C2)C3(CC3)[S@](=N)(=O)C)C4=C5C=CNC5=NC=C4 [AZD6738] (first compound max 1 µM, 7x7, partner max 10 µM)",0.806,0.621,1,0.63,0.784,0.957,0.485,0.965,0.987,0.828,0.484,0.772,0.352,0.928,0.521,0.756,0.483,0.417,0.989,0.781
"CN(C)CCCOc1ccc(-c2ccc3ncc4c(c3c2)n(C2CCOCC2)c(=O)n4C)cn1 [AZD0156] + C[C@@H]1COCCN1C2=NC(=NC(=C2)C3(CC3)[S@](=N)(=O)C)C4=C5C=CNC5=NC=C4 [AZD6738] (first compound max 1 µM, 7x7, partner max 10 µM)",0.84,0.544,0.992,0.612,0.788,0.945,0.343,0.93,0.988,0.493,0.549,0.848,0.226,0.57,0.474,0.816,0.481,0.0837,0.903,0.298
"COc1nnc2ccc(N3CCC(c4ccc(OCCN5CCN(C)C(=O)[C@H]5C)cc4)CC3)nn12 [AZD5153] + C[C@@H]1COCCN1C2=NC(=NC(=C2)C3(CC3)[S@](=N)(=O)C)C4=C5C=CNC5=NC=C4 [AZD6738] (first compound max 1 µM, 7x7, partner max 10 µM)",0.796,0.447,1,0.917,0.731,0.981,0.696,0.953,0.965,0.924,0.488,0.822,0.51,0.886,0.516,0.769,0.746,0.565,0.88,0.454
"Cn1cnc2c(F)c(Nc3ccc(Br)cc3Cl)c(C(=O)NOCCO)cc21 [Selumetinib] + C[C@@H]1COCCN1C2=NC(=NC(=C2)C3(CC3)[S@](=N)(=O)C)C4=C5C=CNC5=NC=C4 [AZD6738] (first compound max 10 µM, 7x7, partner max 10 µM)",0.748,0.347,0.97,0.735,0.775,0.972,0.465,0.892,0.976,0.684,0.255,0.808,0.619,0.612,0.376,0.691,0.362,0.0701,0.822,0.183
"NC1(C(=O)N[C@@H](CCO)c2ccc(Cl)cc2)CCN(c2ncnc3[nH]ccc23)CC1 [Capivasertib] + CCN(CCO)CCCOc1ccc2c(Nc3cc(CC(=O)Nc4cccc(F)c4)[nH]n3)ncnc2c1 [AZD2811] (first compound max 10 µM, 7x7, partner max 1 µM)",0.471,0.219,0.954,0.454,0.202,0.797,0.7,0.568,0.464,0.658,0.235,0.688,0.346,0.763,0.195,0.733,0.321,0.226,0.243,0.265
"Cc1c2c(nn1C)CSCc1cc(n(C)n1)CSc1cc(c3ccccc3c1)OCCCc1c(C(=O)O)n(C)c3c-2c(Cl)ccc13 [AZD5991] + C=CCn1c(=O)c2cnc(Nc3ccc(N4CCN(C)CC4)cc3)nc2n1-c1cccc(C(C)(C)O)n1 [AZD1775] (first compound max 1 µM, partner max 1 µM)",0.59,0.373,1,0.464,0.573,0.979,0.52,0.974,0.907,0.901,0.552,0.725,0.748,0.928,0.575,0.761,0.562,0.516,0.925,0.49
"C=CCn1c(=O)c2cnc(Nc3ccc(N4CCN(C)CC4)cc3)nc2n1-c1cccc(C(C)(C)O)n1 [AZD1775] + C1CN(CCC1(C(=O)N[C@@H](CCO)C2=CC=C(C=C2)Cl)N)C3=NC=NC4=C3C=CN4 [Capivasertib] (first compound max 3 µM, partner max 3 µM)",0.726,0.449,,0.545,0.639,0.931,0.898,0.963,0.977,0.646,0.515,0.734,0.786,0.74,0.634,0.891,0.894,0.612,0.621,0.413
"Cc1c2c(nn1C)CSCc1cc(n(C)n1)CSc1cc(c3ccccc3c1)OCCCc1c(C(=O)O)n(C)c3c-2c(Cl)ccc13 [AZD5991] + C[C@@H](Nc1cc(F)cc(F)c1)c1cc(C(=O)N(C)C)cc2c(=O)cc(N3CCOCC3)oc12 [AZD8186] (first compound max 1 µM, 7x7, partner max 3 µM)",0.258,0.179,1,0.205,,0.697,0.217,0.367,0.734,0.612,0.337,0.443,0.22,0.94,0.384,0.512,0.319,0.452,0.918,0.426
"CN(C)CCCOc1ccc(-c2ccc3ncc4c(c3c2)n(C2CCOCC2)c(=O)n4C)cn1 [AZD0156] + O=C(c1cc(Cc2n[nH]c(=O)c3ccccc23)ccc1F)N1CCN(C(=O)C2CC2)CC1 [Olaparib] (first compound max 3 µM, partner max 3 µM)",0.408,0.0116,,0.179,0.207,0.355,0.348,0.684,0.563,0.3,0.252,0.62,0.149,0.327,0.334,0.632,0.402,0.258,0.739,0.403

# Reference: the supplement of paper PMC11061612
